Data reported in patent US7385026B1, “Modified ghrelin polypeptides” (priority 1999, dated 2008).
pEC50: −log10 of the molar value. Square brackets hold non-standard residues; d marks the D form. Peptide text beside a SMILES is read from it. * marks the point of attachment. Octanoyl = CCCCCCCC(=O)*; Ava = NCCCCC(=O)O; Octyl = CCCCCCCC*

The compounds below were run against T1, rat GHS-receptor (GHR-R) (Rattus norvegicus, UniProt O08725) (assay: Ca-releasing activity (increase in intracellular calcium) in CHO-GHSR62 cells, FLIPR). Conditions: not given.
T1 construct: A full-length cDNA for rat GHR-R was obtained by RT-PCR; expressed in transfected cells
Format: cell-based
Excerpt: To assay an increase in the intracellular calcium ion concentration (Ca-releasing activity) occurring upon binding of a GH secretagogue (GHS) to GHS-receptor (GHR-R), a cell strain expressing rat GHR-R was created in the following manner. A full-length cDNA for rat GHR-R was obtained by RT-PCR (reverse transcriptase-polymerase chain reaction) where a cDNA derived from rat brain was used as template. From the nucleotide sequence of known rat GHR-R [K. K. Mckee, et al, Molecular Endocrinology 11, 415-423 (1997)], sense and antisense primers consisting of the following nucleotide sequences were synthesized.
The amplified cDNA was ligated to vector pcDNAIII (Invitrogen) to construct expression vector GHSR-pcDNAIII. CHO cells were transformed via the expression vector, and the transformed cells stably expressing GHR-R were selected in a medium containing 1 μg/ml G418. […] A change in the intracellular calcium ion concentration (Ca-releasing activity) was measured by an FLIPR system (Molecular Device). Before this measurement, 4×10^4 CHO-GHSR62 cells were put to a 96-well microplate with black wall (Corning Co., Ltd) and cultured for 12 to 15 hours. Then, the cells were incubated with 4 μM fluorescent Fluo4 (Molecular Probe Co., Ltd) for 1 hour and washed four times with Hank's BSS (Hank's Balanced Salt Solution) containing 20 mM Hepes ([N-2-hydroxyethyl]-piperazine-N-[2-ethanesulfonic acid]) and 2.5 mM probenecid, and the Ca-releasing activity was assayed by adding a sample and measuring a change in the fluorescence.
Peptide fragments obtained by partially digested the rat- and human-derived ghrelins by various proteases, or chemically synthesized peptides, were examined for their Ca releasing activity in order to determine a core amino acid sequence and the optimum chain length of a modifying fatty acid necessary for Ca-releasing activity.
The Ca-increasing activities of the ghrelin derivative peptide-type compounds synthesized in Example 10 and the natural ghrelin peptide were measured in the same manner as in Example 1.
In this examination, the intracellular Ca-releasing activity in CHO cells expressing rat GSH receptor was used as the indicator.

T1 sequence (O08725 whole entry): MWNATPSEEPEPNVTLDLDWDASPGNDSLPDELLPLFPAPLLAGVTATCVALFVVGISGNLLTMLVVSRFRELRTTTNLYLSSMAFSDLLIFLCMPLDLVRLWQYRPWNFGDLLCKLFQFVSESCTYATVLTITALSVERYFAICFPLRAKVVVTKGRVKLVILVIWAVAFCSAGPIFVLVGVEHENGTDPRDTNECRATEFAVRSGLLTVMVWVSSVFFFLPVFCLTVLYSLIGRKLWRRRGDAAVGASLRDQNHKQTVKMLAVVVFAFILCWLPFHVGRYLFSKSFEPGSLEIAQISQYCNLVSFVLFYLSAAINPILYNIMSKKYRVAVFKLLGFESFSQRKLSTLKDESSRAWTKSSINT

Row | Ca-releasing activity relative to ghrelin (1-4) before addition of lysine | Ca-releasing activity relative to ghrelin(1-4) amide | Compound
1 | about 50 times | – | CCCCCCCC(=O)OC[C@H](NC(=O)[C@H](CO)NC(=O)CN)C(=O)N[C@@H](Cc1ccccc1)C(=O)N[C@@H](CCCCN)C(N)=O [Compound 38, [Lys^5]-Ghrelin (1-5)-amide] (H-GSS(Octanoyl)FK-NH2)
2 | – | about 26 times | CCCCCCCC(=O)OC[C@H](NC(=O)[C@H](CO)NC(=O)CN)C(=O)N[C@@H](Cc1ccccc1)C(=O)N[C@@H](CC(C)C)C(N)=O [Compound 32, Ghrelin (1-5)-amide] (H-GSS(Octanoyl)FL-NH2)

Same assay, conditions: CHO-GHSR62 cells

Row | Compound | Ca-releasing activity (in words)
3 | GHRH: GH releasing hormone, expressed as GRF in FIG. 3a [reference compound] | did not exhibit the Ca-releasing activity

Same assay, conditions: CHO-GHSR62 cells (CHO cells expressing rat GHS receptor), FLIPR; read-out: Ca-releasing activity EC50

Row | pEC50 | Compound
4 | 8.62 | CCCCCCCCCCCC(=O)OC[C@H](NC(=O)[C@H](CO)NC(=O)CN)C(=O)N[C@@H](Cc1ccccc1)C(=O)N[C@@H](CC(C)C)C(=O)N[C@@H](CO)C(=O)N1CCC[C@H]1C(=O)N[C@@H](CCC(=O)O)C(=O)N[C@@H](Cc1c[nH]cn1)C(=O)N[C@@H](CCC(N)=O)C(=O)N[C@@H](CCCCN)C(=O)N[C@@H](C)C(=O)N[C@@H](CCC(N)=O)C(=O)N[C@@H](CCC(N)=O)C(=O)N[C@@H](CCCNC(=N)N)C(=O)N[C@@H](CCCCN)C(=O)N[C@@H](CCC(=O)O)C(=O)N[C@@H](CO)C(=O)N[C@@H](CCCCN)C(=O)N[C@@H](CCCCN)C(=O)N1CCC[C@H]1C(=O)N1CCC[C@H]1C(=O)N[C@@H](C)C(=O)N[C@@H](CCCCN)C(=O)N[C@@H](CC(C)C)C(=O)N[C@@H](CCC(N)=O)C(=O)N1CCC[C@H]1C(=O)N[C@@H](CCCNC(=N)N)C(=O)O [Compound 13, [Ser^3(Lauroyl)]-rGhrelin]
5 | 7.96 | CCCCCCCNC(=O)C[C@H](NC(=O)[C@H](CO)NC(=O)CN)C(=O)N[C@@H](Cc1ccccc1)C(=O)N[C@@H](CC(C)C)C(=O)N[C@@H](CO)C(=O)N1CCC[C@H]1C(=O)N[C@@H](CCC(=O)O)C(=O)N[C@@H](Cc1c[nH]cn1)C(=O)N[C@@H](CCC(N)=O)C(=O)N[C@@H](CCCNC(=N)N)C(=O)N[C@H](C(=O)N[C@@H](CCC(N)=O)C(=O)N[C@@H](CCC(N)=O)C(=O)N[C@@H](CCCNC(=N)N)C(=O)N[C@@H](CCCCN)C(=O)N[C@@H](CCC(=O)O)C(=O)N[C@@H](CO)C(=O)N[C@@H](CCCCN)C(=O)N[C@@H](CCCCN)C(=O)N1CCC[C@H]1C(=O)N1CCC[C@H]1C(=O)N[C@@H](C)C(=O)N[C@@H](CCCCN)C(=O)N[C@@H](CC(C)C)C(=O)N[C@@H](CCC(N)=O)C(=O)N1CCC[C@H]1C(=O)N[C@@H](CCCNC(=N)N)C(=O)O)C(C)C [Compound 55, [Asp^3(NH-Heptyl)]-hGhrelin]
6 | 8.00 | CCCCCCCC(=O)OC[C@H](NC(=O)[C@H](CO)NC(=O)CN)C(=O)N[C@@H](Cc1ccccc1)C(=O)N[C@@H](CCCCN)C(N)=O [Compound 38, [Lys^5]-Ghrelin (1-5)-amide] (H-GSS(Octanoyl)FK-NH2)
7 | 5.52 | CCCCCCCCSC[C@H](NC(=O)[C@H](CO)NC(=O)CN)C(=O)N[C@H](Cc1ccccc1)C(=O)N[C@@H](CC(C)C)C(=O)N[C@@H](CO)C(=O)N1CCC[C@H]1C(N)=O [Compound 49, [Cys^3(Octyl), ^DPhe^4]Ghrelin (1-7)-amide] (H-GSC(Octyl)[dF]LSP-NH2)
8 | 7.51 | CC(C)C[C@H](NC(=O)[C@H](CCCCN)NC(=O)[C@H](C)NC(=O)[C@@H]1CCCN1C(=O)[C@@H]1CCCN1C(=O)[C@H](CCCCN)NC(=O)[C@H](CCCCN)NC(=O)[C@H](CO)NC(=O)[C@H](CCC(=O)O)NC(=O)[C@H](CCCCN)NC(=O)[C@H](CCCNC(=N)N)NC(=O)[C@H](CCC(N)=O)NC(=O)[C@H](CCC(N)=O)NC(=O)[C@@H](NC(=O)[C@H](CCCNC(=N)N)NC(=O)[C@H](CCC(N)=O)NC(=O)[C@H](Cc1c[nH]cn1)NC(=O)[C@H](CCC(=O)O)NC(=O)[C@@H]1CCCN1C(=O)[C@H](CO)NC(=O)[C@H](CC(C)C)NC(=O)[C@H](Cc1ccccc1)NC(=O)[C@H](Cc1c[nH]c2ccccc12)NC(=O)[C@H](CO)NC(=O)CN)C(C)C)C(=O)N[C@@H](CCC(N)=O)C(=O)N1CCC[C@H]1C(=O)N[C@@H](CCCNC(=N)N)C(=O)O [Compound 62, [Trp^3]-hGhrelin]
9 | 8.00 | CCCCCCCC(=O)O[C@H](C)[C@H](NC(=O)[C@H](CO)NC(=O)CN)C(=O)N[C@@H](Cc1ccccc1)C(=O)N[C@@H](CC(C)C)C(=O)N[C@@H](CO)C(=O)N1CCC[C@H]1C(=O)N[C@@H](CCC(=O)O)C(=O)N[C@@H](Cc1c[nH]cn1)C(=O)N[C@@H](CCC(N)=O)C(=O)N[C@@H](CCCNC(=N)N)C(=O)N[C@H](C(=O)N[C@@H](CCC(N)=O)C(=O)N[C@@H](CCC(N)=O)C(=O)N[C@@H](CCCNC(=N)N)C(=O)N[C@@H](CCCCN)C(=O)N[C@@H](CCC(=O)O)C(=O)N[C@@H](CO)C(=O)N[C@@H](CCCCN)C(=O)N[C@@H](CCCCN)C(=O)N1CCC[C@H]1C(=O)N1CCC[C@H]1C(=O)N[C@@H](C)C(=O)N[C@@H](CCCCN)C(=O)N[C@@H](CC(C)C)C(=O)N[C@@H](CCC(N)=O)C(=O)N1CCC[C@H]1C(=O)N[C@@H](CCCNC(=N)N)C(=O)O)C(C)C [Compound 59, [Thr^3(Octanoyl)]-hGhrelin]
10 | 5.80 | CC(C)C[C@H](NC(=O)[C@H](CCCCN)NC(=O)[C@H](C)NC(=O)[C@@H]1CCCN1C(=O)[C@@H]1CCCN1C(=O)[C@H](CCCCN)NC(=O)[C@H](CCCCN)NC(=O)[C@H](CO)NC(=O)[C@H](CCC(=O)O)NC(=O)[C@H](CCCCN)NC(=O)[C@H](CCCNC(=N)N)NC(=O)[C@H](CCC(N)=O)NC(=O)[C@H](CCC(N)=O)NC(=O)[C@@H](NC(=O)[C@H](CCCNC(=N)N)NC(=O)[C@H](CCC(N)=O)NC(=O)[C@H](Cc1c[nH]cn1)NC(=O)[C@H](CCC(=O)O)NC(=O)[C@@H]1CCCN1C(=O)[C@H](CO)NC(=O)[C@H](CC(C)C)NC(=O)[C@H](Cc1ccccc1)NC(=O)[C@@H](NC(=O)[C@H](CO)NC(=O)CN)C(C)C)C(C)C)C(=O)N[C@@H](CCC(N)=O)C(=O)N1CCC[C@H]1C(=O)N[C@@H](CCCNC(=N)N)C(=O)O [Compound 74, [Val^3]-hGhrelin]
11 | 6.32 | CCCCCCCC(=O)OC[C@H](NC(=O)[C@H](CO)NC(=O)CN)C(=O)N[C@@H](Cc1ccccc1)C(=O)O [Compound 33-1, Ghrelin (1-4)] (H-GSS(Octanoyl)F-OH)
12 | 8.21 | CCCCCCCC(=O)OC[C@H](NC(=O)[C@H](CO)NC(=O)CN)C(=O)N[C@@H](Cc1ccccc1)C(=O)N[C@@H](CC(C)C)C(N)=O [Compound 32, Ghrelin (1-5)-amide] (H-GSS(Octanoyl)FL-NH2)
13 | 8.96 | CCCCCCCC(=O)OC[C@H](NC(=O)[C@H](CO)NC(=O)CN)C(=O)N[C@@H](Cc1ccccc1)C(=O)N[C@@H](CC(C)C)C(=O)N[C@@H](CO)C(=O)N1CCC[C@H]1C(=O)N[C@@H](CCCNC(=N)N)C(N)=O [Compound 36, [Arg^8]-Ghrelin (1-8)-amide] (H-GSS(Octanoyl)FLSPR-NH2)
14 | 8.47 | CCCCCCCC(=O)OC[C@H](NC(=O)CCCCN)C(=O)N[C@@H](Cc1ccccc1)C(=O)N[C@@H](CC(C)C)C(=O)N[C@@H](CO)C(=O)N1CCC[C@H]1C(N)=O [Compound 40, [N-Aminopentanoyl]-Ghrelin (3-7)-amide] (H-[Ava]S(Octanoyl)FLSP-NH2)
15 | 7.92 | CCCCCCCCOC[C@H](NC(=O)CCCCN)C(=O)N[C@@H](Cc1ccccc1)C(=O)N[C@@H](CCCCN)C(N)=O [Compound 76, [N-Aminopentanoyl, Ser^3(Octyl), Lys^5]-Ghrelin (3-5)-amide]
16 | 7.72 | CC(C)C[C@H](NC(=O)[C@H](CCCCN)NC(=O)[C@H](C)NC(=O)[C@@H]1CCCN1C(=O)[C@@H]1CCCN1C(=O)[C@H](CCCCN)NC(=O)[C@H](CCCCN)NC(=O)[C@H](CO)NC(=O)[C@H](CCC(=O)O)NC(=O)[C@H](CCCCN)NC(=O)[C@H](CCCNC(=N)N)NC(=O)[C@H](CCC(N)=O)NC(=O)[C@H](CCC(N)=O)NC(=O)[C@@H](NC(=O)[C@H](CCCNC(=N)N)NC(=O)[C@H](CCC(N)=O)NC(=O)[C@H](Cc1c[nH]cn1)NC(=O)[C@H](CCC(=O)O)NC(=O)[C@@H]1CCCN1C(=O)[C@H](CO)NC(=O)[C@H](CC(C)C)NC(=O)[C@H](Cc1ccccc1)NC(=O)[C@H](CC1CCCCC1)NC(=O)[C@H](CO)NC(=O)CN)C(C)C)C(=O)N[C@@H](CCC(N)=O)C(=O)N1CCC[C@H]1C(=O)N[C@@H](CCCNC(=N)N)C(=O)O [Compound 64, [Cha^3]-hGhrelin]
17 | < 5.00 | CCCCCCCC(=O)OC[C@H](NC(=O)[C@H](CO)NC(=O)CN)C(N)=O [Compound 34, Ghrelin (1-3)-amide] (H-Gly-Ser-Ser(Octanoyl)-NH2)
18 | 7.89 | CCCCCCCC(=O)OC[C@H](NC(=O)[C@H](CO)NC(=O)CN)C(=O)N[C@@H](Cc1ccccc1)C(=O)N[C@@H](CC(C)C)C(=O)N[C@@H](CO)C(=O)N1CCC[C@H]1C(=O)N[C@@H](CCC(=O)O)C(N)=O [Compound 28, Ghrelin (1-8)-amide]
19 | 5.77 | CCCCCCCC(=O)OC[C@H](NC(=O)[C@H](CO)NC(=O)CN)C(=O)N[C@H](Cc1ccccc1)C(=O)N[C@@H](CCCCN)C(N)=O [Compound 39, [^DPhe^4, Lys^5]-Ghrelin (1-5)-amide] (H-GSS(Octanoyl)[dF]K-NH2)
20 | 7.96 | CCCCCCCCOC[C@H](NC(=O)CCCCN)C(=O)N[C@@H](Cc1ccccc1)C(=O)N[C@@H](CC(C)C)C(N)=O [Compound 81, [N-Aminopentanoyl, Ser^3(Octyl)]-Ghrelin (3-5)-amide]
